The values that follow come from patent US8198098B2, “Optical measurement method for determining the pH of a medium using ageladine A as a fluorescent pH indicator” (Stiftung Alfred-Wegener-Institut fuer Polar-und …, priority 2007, dated 2012).

SMILES strings stand for the structures. Entries after “also recorded” stand apart in the source; their conditions may differ.

For series [1] the following is noted: detectable pH range of the fluorescent pH indicator; taken from probes.invitrogen.com handbook table; cited from earlier work.
The nature of series [2]: fluorescence intensity of ageladine A as a function of the pH of the solution. It is filed as physicochemical. From the text:
The optical measurement method according to an embodiment of the present invention includes an alternative fluorescent pH indicator based on ageladine A. Ageladine A is a known natural marine substance in the form of a pyrrole-imidazole alkaloid which has heretofore been used exclusively for medical purposes. Ageladine A can be obtained both from marine sponges and produced synthetically. It is therefore readily possible, by means of the total syntheses described, to prepare large quantities of ageladine A without having to have recourse to marine sponges. […] When using ageladine A as a fluorescent pH indicator, pH changes of the medium to be investigated between pH4 and pH9 can be reliably optically indicated by means of a changeable fluorescence intensity in such a manner that the emitted fluorescence intensity increases as the pH falls. […] Advantageously, samples that have been taken (in vitro), but also living cells, tissue and entire organisms (in vivo) can be incubated with ageladine A as fluorescent pH indicator and stained in this manner by means of the fluorescence in the green range. This enables measurements of the pH in vivo and in vitro in a wide range and thus the detection of acidic tissue in organisms due to its fluorescence properties. The fluorescence in the green range increases markedly as the pH falls. […] The fluorescence intensity was measured at 510 nm. […]

In series [3] the test system is shrimp (Palaemonetes argentinus). Nature of the series: in-vivo staining of a living organism with ageladine A. An excerpt: The green curve (lowest straight curve) indicates fluorescence intensity values within the buffer solution outside of the shrimp, the red and blue curves (middle and upper curved curves) indicate fluorescence intensity values within the shrimp and thus, in a simple manner, easily recognizable and detectable acidic constituents of the shrimp.

Series [4] has as its system PC-12 cells. Nature of the series: staining of cells with ageladine A and measurement of intracellular pH. The following applies: PC-12 cells incubated with ageladine A, excitation 380 nm. It is filed as cell-based, rat. Here is the method: FIGS. 2A, 2B show images, at 400-times magnification, of cells (PC-12 cells, rat, deposited at DSMZ) incubated with ageladine A and stained by means of the same. Excitation took place using UV light with a wavelength of 380 nm.
The fluorescence ratio value (340 nm/380 nm) is plotted over time (time in s). The various pHs of the buffer solution are marked as parameters on the graph. It can clearly be recognized that the fluorescence emission follows the extracellular increase of the pH of the solution in a wide range (pH6.5 to pH3). The change of the intracellular pH is only a few tenths around pH7, as a result of which a very high measurement resolution of the pH indicator results.

In the case of `O=c1c2cccc3c(NCCN4CCOCC4)ccc(c32)c2nc3ccccc3n12` [LysoSensor Green DND-189], in series [1], the “PH RANGE” value is reported as 4.5-6.0.
As for `O=S(=O)([O-])c1cc(O)c2ccc3c(S(=O)(=O)[O-])cc(S(=O)(=O)[O-])c4ccc1c2c34.[Na+].[Na+].[Na+]` [HPTS (pyranine), pyranine], the “PH RANGE” value in series [1] is on record as 7.0-8.0.
Turning to `Nc1nc2ccnc(-c3cc(Br)c(Br)[nH]3)c2[nH]1` [ageladine A], in series [2] (cells, tissue, organisms incubated with ageladine A), the “stability of the stainings” value is given as “stable over hours to days; also recorded: last for at least a plurality of days”. Besides, the “stability of fluorescence under UV irradiation” value in series [2] (despite UV irradiation) was “stable for hours”. Further, in series [3] (intact, living organisms, on account of lipophilic structure (bromination)), the penetration into tissue entry is “penetrates very quickly and far into the tissue”. Moreover, the “in-vivo staining of tissue” value in series [3] (shrimp incubated with ageladine A, irradiated with UV light) was “acidic structures (mouth-digestive region) in the shrimp were stained”. For the same compound, the staining of cells result in series [4] is on record as “stained”.
